According to ChEMBL document CHEMBL1201862, “PubChem BioAssay data set” (2004):
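Five compound concentrations were applied to cells in 96-well plates for 48 hours; endpoints were derived by simple linear interpolation of the resulting dose-response curve. The concentration for 50% growth inhibition is given as GI50.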 Activity calls are given as the source filed them. No stated cut-off is given here; in the data, active = GI50 up to about 1.1 µM and inactive = higher. Where a SMILES comes first, the peptide text is derived from it. [ ]: non-standard residue; d: D form. The star is where a group is joined. Hyp = O=C(O)[CH]1C[CH](O)CN1; Cbz = O=C(OCc1ccccc1)*

Assays:
Assay in all cases: NCI-60 cell line screen, 48 h
786-0 = test system: 786-0
CCRF-CEM = test system: CCRF-CEM
HCT-15 = test system: HCT-15
HOP-62 = test system: HOP-62
HOP-92 = test system: HOP-92
K562 = test system: K562
KM12 = test system: KM12
NCI-H226 = test system: NCI-H226
NCI-H23 = test system: NCI-H23
NCI-H460 = test system: NCI-H460
PC-3 = test system: PC-3
RXF 393 = test system: RXF 393
SF-295 = test system: SF-295
SK-MEL-28 = test system: SK-MEL-28
SK-OV-3 = test system: SK-OV-3
SR = test system: SR
TK-10 = test system: TK-10
U-251 = test system: U-251
UACC-62 = test system: UACC-62
A498 = test system: A498

Row | SMILES | GI50 (786-0) | GI50 (CCRF-CEM) | GI50 (HCT-15) [µM] | GI50 (HOP-62) | GI50 (HOP-92) | GI50 (K562) | GI50 (KM12) | GI50 (NCI-H226) | GI50 (NCI-H23) | GI50 (NCI-H460) | GI50 (PC-3) | GI50 (RXF 393) | GI50 (SF-295) | GI50 (SK-MEL-28) | GI50 (SK-OV-3) | GI50 (SR) | GI50 (TK-10) | GI50 (U-251) | GI50 (UACC-62) | GI50 (A498)
1 | CC(C)(C)[Si](C)(C)OCC1CCC(n2cnc3c(=O)[nH]cnc32)O1 (stereo not drawn) | > 100 µM (inactive) | 68.5 µM (inactive) | > 100 | > 100 µM (inactive) | > 100 µM (inactive) | 85.7 µM (inactive) | > 100 µM (inactive) | 77.6 µM (inactive) | > 100 µM (inactive) | > 100 µM (inactive) | > 100 µM (inactive) | > 100 µM (inactive) | > 100 µM (inactive) | > 100 µM (inactive) | > 100 µM (inactive) | 35.3 µM (inactive) | > 100 µM (inactive) | > 100 µM (inactive) | 35.7 µM (inactive) | 
2 | CC(=O)OCC1CCC(=C2C(=O)OC(C)(C)OC2=O)N1 (stereo not drawn) | > 100 µM (inactive) | > 100 µM (inactive) | > 100 | > 100 µM (inactive) | > 100 µM (inactive) | > 100 µM (inactive) | > 100 µM (inactive) | > 100 µM (inactive) | > 100 µM (inactive) | > 100 µM (inactive) | > 100 µM (inactive) | > 100 µM (inactive) | > 100 µM (inactive) | > 100 µM (inactive) | > 100 µM (inactive) | > 100 µM (inactive) | > 100 µM (inactive) | > 100 µM (inactive) | > 100 µM (inactive) | 
3 | Oc1nc(S)nc2c1CN(CCCN1CCOCC1)CN2 | 40.4 µM (inactive) |  | 32 | 30.9 µM (inactive) | 37.7 µM (inactive) | 67.9 µM (inactive) | 28.2 µM (inactive) | > 100 µM (inactive) | 22.4 µM (inactive) | 25.9 µM (inactive) | 22.1 µM (inactive) |  | 28.2 µM (inactive) | > 100 µM (inactive) |  | 28.4 µM (inactive) | 56.6 µM (inactive) | 33.5 µM (inactive) | 19.7 µM (inactive) | > 100 µM (inactive)
4 | CN(C1=NCCO1)c1cccc2c1CCCC2 | 3.17 µM (inactive) | 1.15 µM (inactive) | 3.48 | 7.08 µM (inactive) |  | 4.78 µM (inactive) | 6.97 µM (inactive) | 1.44 µM (inactive) | 3.73 µM (inactive) | 4.01 µM (inactive) | 2.25 µM (inactive) | 3.64 µM (inactive) | 4.35 µM (inactive) | 6.01 µM (inactive) | 4.71 µM (inactive) | 1.21 µM (inactive) | 3.23 µM (inactive) | 3.57 µM (inactive) | 3.37 µM (inactive) | 3.71 µM (inactive)
5 | O=c1[nH]nc(-c2ccccc2)n1-n1cccc1 | > 100 µM (inactive) | 50.8 µM (inactive) | > 100 | > 100 µM (inactive) |  | > 100 µM (inactive) | > 100 µM (inactive) | > 100 µM (inactive) |  | > 100 µM (inactive) | > 100 µM (inactive) | > 100 µM (inactive) | > 100 µM (inactive) | > 100 µM (inactive) | > 100 µM (inactive) | 9.29 µM (inactive) | > 100 µM (inactive) | > 100 µM (inactive) | > 100 µM (inactive) | > 100 µM (inactive)
6 | O=S(=O)(c1ccccc1)N1CCCC(c2ccccc2)CC1 (stereo not drawn) | 41.9 µM (inactive) | 33.8 µM (inactive) | 46.5 |  | > 100 µM (inactive) | 19.4 µM (inactive) | 41 µM (inactive) | 52.7 µM (inactive) | 27.5 µM (inactive) | 31.2 µM (inactive) | 30.6 µM (inactive) | 41.5 µM (inactive) | 43.7 µM (inactive) | > 100 µM (inactive) |  | 16.9 µM (inactive) | 51.9 µM (inactive) | 45.5 µM (inactive) | > 100 µM (inactive) | 49 µM (inactive)
7 | COc1ccc2cc(C(=O)O)ccc2c1OC | > 100 µM (inactive) | > 100 µM (inactive) | > 100 | > 100 µM (inactive) |  | > 100 µM (inactive) | > 100 µM (inactive) | > 100 µM (inactive) | > 100 µM (inactive) | > 100 µM (inactive) | > 100 µM (inactive) |  | > 100 µM (inactive) |  | > 100 µM (inactive) | > 100 µM (inactive) |  | > 100 µM (inactive) | > 100 µM (inactive) | > 100 µM (inactive)
8 | NC(=O)CNC(=O)C1CC(O)CN1C(=O)C1CCCN1C(=O)OCc1ccccc1 (stereo not drawn) (Cbz-Pro-[Hyp]-Gly-NH2; configuration not given here) | > 100 µM (inactive) | > 100 µM (inactive) | > 100 | > 100 µM (inactive) |  | > 100 µM (inactive) | > 100 µM (inactive) | > 100 µM (inactive) | > 100 µM (inactive) | > 100 µM (inactive) | > 100 µM (inactive) | > 100 µM (inactive) | > 100 µM (inactive) | > 100 µM (inactive) | > 100 µM (inactive) | > 100 µM (inactive) | > 100 µM (inactive) | > 100 µM (inactive) | > 100 µM (inactive) | > 100 µM (inactive)
9 | NC(CCCCNC(=O)OCc1ccccc1)C(=O)NC(CCCCNC(=O)OCc1ccccc1)C(=O)ON1C(=O)CCC1=O (stereo not drawn) | > 100 µM (inactive) | > 100 µM (inactive) | > 100 | > 100 µM (inactive) | > 100 µM (inactive) | > 100 µM (inactive) | > 100 µM (inactive) | > 100 µM (inactive) | > 100 µM (inactive) | > 100 µM (inactive) | > 100 µM (inactive) | 52.7 µM (inactive) |  | > 100 µM (inactive) |  | > 100 µM (inactive) | > 100 µM (inactive) | > 100 µM (inactive) | > 100 µM (inactive) | > 100 µM (inactive)
10 | CCCCn1c2c(c3ccccc3c1=O)C(=O)c1ccccc1-2 | 25.3 µM (inactive) | > 100 µM (inactive) | > 100 | 19.9 µM (inactive) | > 100 µM (inactive) | > 100 µM (inactive) | > 100 µM (inactive) | > 100 µM (inactive) | 45.2 µM (inactive) |  | > 100 µM (inactive) |  | 37.8 µM (inactive) | > 100 µM (inactive) | > 100 µM (inactive) | 1.82 µM (inactive) | 62.4 µM (inactive) | 66.1 µM (inactive) | > 100 µM (inactive) | > 100 µM (inactive)
11 | COc1ccc(/C=C2\N=C(SC)N(CN3CCCCC3)C2=O)cc1 | > 100 µM (inactive) |  | > 100 | 58.7 µM (inactive) | 0.347 µM (active) | > 100 µM (inactive) | > 100 µM (inactive) | > 100 µM (inactive) | > 100 µM (inactive) |  | > 100 µM (inactive) |  | > 100 µM (inactive) | > 100 µM (inactive) | > 100 µM (inactive) | > 100 µM (inactive) | > 100 µM (inactive) | > 100 µM (inactive) | > 100 µM (inactive) | 42.4 µM (inactive)
